Structures are written as SMILES. Some results are limits rather than exact numbers.

Experimental findings from patent publication US20220194935A1, “PHENETHYL SUBSTITUTED IMIDAZO[4,5-C]QUINOLINE COMPOUNDS WITH AN N-1 BRANCHED GROUP” (3M INNOVATIVE PROPERTIES COMPANY, priority 2019, published 2022) are described below.

The target in this experiment is T1, human TLR8 (Homo sapiens, UniProt Q9NR97).
T1 construct: host or cells: HEK293 (HEK-BLUE-hTLR8)
T1 sequence (Q9NR97 27-1041): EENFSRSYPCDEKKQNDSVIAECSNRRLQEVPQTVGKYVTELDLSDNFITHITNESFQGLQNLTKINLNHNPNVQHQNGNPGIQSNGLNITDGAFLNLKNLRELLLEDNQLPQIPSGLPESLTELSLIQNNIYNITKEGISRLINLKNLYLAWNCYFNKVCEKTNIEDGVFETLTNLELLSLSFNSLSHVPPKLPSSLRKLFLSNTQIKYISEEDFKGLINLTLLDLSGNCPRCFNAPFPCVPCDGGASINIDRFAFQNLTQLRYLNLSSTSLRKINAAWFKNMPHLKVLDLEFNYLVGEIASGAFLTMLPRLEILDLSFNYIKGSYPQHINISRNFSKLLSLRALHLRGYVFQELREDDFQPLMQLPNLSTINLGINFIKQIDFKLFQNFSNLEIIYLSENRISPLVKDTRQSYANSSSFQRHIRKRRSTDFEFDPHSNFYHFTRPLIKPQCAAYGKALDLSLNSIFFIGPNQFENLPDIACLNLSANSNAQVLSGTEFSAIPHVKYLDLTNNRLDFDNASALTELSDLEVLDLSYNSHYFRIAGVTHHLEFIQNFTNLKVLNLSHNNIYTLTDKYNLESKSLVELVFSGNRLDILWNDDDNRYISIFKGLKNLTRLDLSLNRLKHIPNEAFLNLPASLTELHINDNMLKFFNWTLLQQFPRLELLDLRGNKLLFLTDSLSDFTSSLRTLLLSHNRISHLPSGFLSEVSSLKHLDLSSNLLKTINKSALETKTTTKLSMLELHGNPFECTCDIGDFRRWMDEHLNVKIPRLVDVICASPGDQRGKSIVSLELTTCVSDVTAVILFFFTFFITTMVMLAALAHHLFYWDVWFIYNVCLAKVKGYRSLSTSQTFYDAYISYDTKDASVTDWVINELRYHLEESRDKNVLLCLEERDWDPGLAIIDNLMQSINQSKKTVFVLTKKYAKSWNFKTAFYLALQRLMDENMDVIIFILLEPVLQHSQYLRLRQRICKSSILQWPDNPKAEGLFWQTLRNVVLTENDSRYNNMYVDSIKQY
As to the kind of experiment: TLR Activation and Specificity, HEK-BLUE-hTLR8 SEAP reporter cells. In kind it is cell-based. The note with it: 16-20 hours, at least 2× vehicle control, tested 0.01-30 micromolar. The protocol: HEK-BLUE-hTLR7 or hTLR8 reporter cells were obtained from InvivoGen, San Diego, Calif. According to the manufacturer's description, these reporter cells were prepared by co-transfection of HEK293 cells with an inducible secreted embryonic alkaline phosphatase (SEAP) reporter gene and either the human TLR7 or TLR8 gene. The SEAP reporter gene was placed under the control of an IFN-β minimal promoter fused to five NF-κB and AP-1-binding sites. In the presence of a TLR ligand, activation of NF-κB and AP-1 occurs, resulting in a corresponding increase in SEAP levels.
In the assay, the HEK cells were grown and maintained using standard cell culture techniques in a growth medium that contained Dulbecco's Modified Eagle Medium (ThermoFisher Scientific Incorporated, Waltham, Mass.) supplemented with 1% penicillin/streptomycin and 10% heat-inactivated Gibco fetal bovine serum (ThermoFisher Scientific). Each compound was solubilized in DMSO to create a 3 millimole (mM) stock solution. The stock solution was then further diluted with the growth medium to prepare serial dilutions. Each test compound was tested at a concentration of 30, 10, 3.3, 1.1, 0.37, 0.12, 0.04, and 0.01 micromolar using a 96-well format with 5×10^4 cells and 200 microliters of growth medium per well.
For each compound, hTLR7, hTLR8, and their respective null control HEK cells were screened. DMSO serially diluted into the growth medium served as the vehicle control. Cell culture supernatants containing the SEAP reporter were collected after an incubation period of 16-20 hours in a cell culture incubator (37° C. and 5% CO2), and either analyzed immediately or stored at −80° C. SEAP levels were measured using the colorimetric enzyme assay (QUANTI-BLUE (InvivoGen) according to manufacturer's instructions.
Specifically, the minimum effective concentration of each compound (micromolar) was determined as the lowest concentration of the compound that produced a SEAP expression response at least 2× greater than that observed with the vehicle control wells.

Turning to `C[C@H](Cc1ccccc1)n1cnc2c(N)nc3ccccc3c21` [Example 1, 1-[(1R)-1-methyl-2-phenyl-ethyl]imidazo[4,5-c]quinolin-4-amine], the “MEC to Produce TLR Activation, TLR 8” value is >30 µM.
Then `CCOC[C@@H](Cc1ccccc1)n1cnc2c(N)nc3ccccc3c21` [Example 4, 1-[(1R)-1-benzyl-2-ethoxy-ethyl]imidazo[4,5-c]quinolin-4-amine], with >30 µM; and `Nc1nc2ccccc2c2c1ncn2CCc1ccccc1` [Comparative Example 1, 1-phenethyl-1H-imidazo[4,5-c]quinolin-4-amine, reference compound], with >30 µM.
Then `CCCC[C@H](Cc1ccccc1)n1cnc2c(N)nc3ccccc3c21` [Example 2, 1-[(1R)-1-benzylpentyl]imidazo[4,5-c]quinolin-4-amine], with 10 µM; and `CCCCOc1ccc(C[C@@H](CCCC)n2cnc3c(N)nc4ccccc4c32)cc1` [Example 7, 1-[(1R)-1-[(4-butoxyphenyl)methyl]pentyl]imidazo[4,5-c]quinolin-4-amine], with 10 µM.
On to `COC[C@H](Cc1ccccc1)n1cnc2c(N)nc3ccccc3c21` [Example 5, 1-[(1S)-1-benzyl-2-methoxy-ethyl]imidazo[4,5-c]quinolin-4-amine], for which the “MEC to Produce TLR Activation, TLR 8” value was 10 µM.
Then `COC[C@@H](Cc1ccccc1)n1cnc2c(N)nc3ccccc3c21` [Example 3, 1-[(1R)-1-benzyl-2-methoxy-ethyl]imidazo[4,5-c]quinolin-4-amine], with >30 µM; and `CCOC[C@H](Cc1ccccc1)n1cnc2c(N)nc3ccccc3c21` [Example 6, 1-[(1S)-1-benzyl-2-ethoxy-ethyl]imidazo[4,5-c]quinolin-4-amine], with 3.3 µM.
